In US20210254006A1, “METHODS OF CULTURING AND/OR EXPANDING STEM CELLS AND/OR LINEAGE COMMITTED PROGENITOR CELLS USING LACTAM COMPOUNDS” (IDEAYA BIOSCIENCES, INC., priority 2018, published 2021):
One block for each molecule: values may come before it.

Legend:
hAhR = molecular target: T1, hAhR (Homo sapiens, UniProt P35869); assay: AhR antagonist DRE-luciferase reporter transcriptional assay (TCDD-induced) in HEPG2 DRE-Luc cells; format: cell-based; conditions: relative IC50, HEPG2 DRE-Luc cells, 3 nM TCDD, 24 h incubation; read-out: IC50 hAhR (antagonist mode)
T1 construct: endogenous in cells; host or cells: HEPG2 cells with stably integrated Cignal XRE (DRE) luciferase reporter
T1 sequence (P35869 11-848): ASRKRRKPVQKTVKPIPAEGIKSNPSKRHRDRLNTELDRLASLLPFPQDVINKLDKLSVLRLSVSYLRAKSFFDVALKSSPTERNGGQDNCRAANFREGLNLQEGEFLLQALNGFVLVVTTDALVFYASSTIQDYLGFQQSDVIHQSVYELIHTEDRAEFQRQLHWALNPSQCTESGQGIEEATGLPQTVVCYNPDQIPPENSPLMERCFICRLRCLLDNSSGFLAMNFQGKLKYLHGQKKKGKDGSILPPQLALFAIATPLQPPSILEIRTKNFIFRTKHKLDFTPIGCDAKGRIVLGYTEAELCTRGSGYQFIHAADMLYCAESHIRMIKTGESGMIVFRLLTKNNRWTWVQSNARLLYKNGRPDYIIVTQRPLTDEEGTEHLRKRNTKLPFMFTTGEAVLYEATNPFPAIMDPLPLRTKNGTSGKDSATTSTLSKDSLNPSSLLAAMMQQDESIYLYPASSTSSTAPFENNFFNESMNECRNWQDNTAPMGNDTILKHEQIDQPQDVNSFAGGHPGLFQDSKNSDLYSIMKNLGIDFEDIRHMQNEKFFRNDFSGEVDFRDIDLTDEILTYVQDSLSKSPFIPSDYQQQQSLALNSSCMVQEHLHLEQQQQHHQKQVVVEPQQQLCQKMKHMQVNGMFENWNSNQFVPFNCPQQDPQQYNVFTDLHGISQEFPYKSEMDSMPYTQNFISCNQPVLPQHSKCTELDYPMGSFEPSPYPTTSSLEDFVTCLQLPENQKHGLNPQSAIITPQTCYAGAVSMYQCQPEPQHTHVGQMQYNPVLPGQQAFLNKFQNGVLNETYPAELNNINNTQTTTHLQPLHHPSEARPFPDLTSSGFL
Protocol: The ability of compounds of formula (I) to antagonize AhR was tested as follow. HEPG2 and HEPA1C1C7 cells were maintained in MEM and αMEM without nucleosides supplemented with 10% heat inactivated FBS respectively. Stably integrated DRE-luciferase cell lines were generated by transducing the both cell lines with Cignal XRE luciferase reporter (Qiagen) lentiviral particles according to the manufacturer protocol. For both cell lines, stably integrated reporter cell lines were selected for the presence of 2 μg/mL puromycin. Following selection of stably integrated cell line pools, clonal cell lines were isolated by limiting dilution in 96-well plates. […]
To determine AhR antagonist activity of compound of formula (I), the compounds were added in a semi-log dose response using a D300e Digital Dispenser (Tecan) followed normalization with vehicle (DMSO). […] Firefly luciferase activity was measured immediately following the addition of 50 μL Luciferase Assay Reagent (Promega). The percent maximal activity for each point was determined using the following equation: (RLUsample−RLUvehicle−TCDD)/(RLUvehicle+TCDD RLUvehicle−TCDD)*100. The relative IC50, defined as the compound concentration required to reduce the TCDD induced response between the top and bottom plateau of each individual dose response curve by half, for each compound was determined using Prism7 (GraphPad Software).

[1] = tested on: human CD34+ hematopoietic stem cells (HSC); assay: Hematopoietic stem cell expansion, CD34+ cells by flow cytometry after 12-day culture; format: cell-based
Protocol: The ability of compounds of formula (I) to facilitate hematopoietic stem cell expansion was determined by testing 1-methyl-7-(2-methyl-4-(6-(trifluoromethyl)pyrido[3,2-d]pyrimidin-2-yl)phenyl)-6,7-dihydro-1H-pyrazolo[3,4-f][1,4]oxazepin-8(5H)-one (compound 1) and 3-methyl-5-(2-methyl-4-(6-(trifluoromethyl)quinazolin-2-yl)phenyl)-6,7-dihydropyrazolo[1,5-a]pyrazin-4(5H)-one (compound 2) as follows.
Isolated human CD34^+ hematopoietic stem cells (HSC) were obtained from AllCells (Alameda, Calif., USA). 5,000 HSC per well were cultivated in 100 μL HSC expansion media StemSpan SFEM (StemCell Technologies; Vancouver, BC, Canada) containing 1× antibiotics (Life Technologies, Carlsbad, Calif., USA), 100 ng/mL thrombopoietin, 100 ng/mL IL-6, 100 ng/mL Flt3 ligand and 100 ng/mL stem cell factor (all R&D Systems, Minneapolis, Minn., USA) in a flat bottom 96 well tissue culture plate. 100 μL of 3-fold serial diluted compound 1 or 2 (final concentration range 0.169-10,000 nM) was added at 2× of the final concentration to HSC culture and HSC culture plates were incubated in a humidity-controlled incubator at […], 5% CO2. After 12 days, the absolute viable cell counts from each well were determined. HSC were then stained in staining buffer composed of Hank's balanced salt solution with 2% fetal bovine serum and 2 mM EDTA (all Life Technologies) at 4° C. for 1 hour with anti-CD90 APC, anti-CD34 PerCP, anti-CD38 FITC, CD45RA PE-Cy7 and anti-CD133 PE antibodies (all BD Biosciences, San Jose, Calif., USA). HSC were washed with staining buffer and HSC were analyzed by multicolor phenotype flow cytometry. The percentages of CD34^+ cells were determined as percentage of total population. Absolute counts of each population were calculated from the total number of viable cells multiplied by the percentage of each population. The EC50 value for the frequency of CD34+ cells, defined as the compound concentration with half maximal response on the dose response curve, was calculated using Prism 7 (GraphPad Software, La Jolla, Calif., USA).

[2] = compound concentration 3,333 nM

IC50 (hAhR): 200 to 500 nM
Structure (SMILES): Cc1cc(-c2ncc3cc(C(F)(F)F)ccc3n2)ccc1N1CCOc2cnn(CCO)c2C1=O [Example 034, 1-(2-hydroxyethyl)-7-(2-methyl-4-(6-(trifluoromethyl)quinazolin-2-yl)phenyl)-6,7-dihydro-1H-pyrazolo[3,4-f][1,4]oxazepin-8(5H)-one]

IC50 (hAhR): < 200 nM
Structure (SMILES): Cc1cc(-c2ncc3cc(C(F)(F)F)ccc3n2)ccc1N1CCOc2cn[nH]c2C1=O [Example 033, 7-(2-methyl-4-(6-(trifluoromethyl)quinazolin-2-yl)phenyl)-6,7-dihydro-1H-pyrazolo[3,4-f][1,4]oxazepin-8(5H)-one]

Structure (SMILES): Cc1cc(-c2ncc3cc(C(F)(F)F)ccc3n2)ccc1N1CCn2ncc(C)c2C1=O [Example 002, 3-methyl-5-(2-methyl-4-(6-(trifluoromethyl)quinazolin-2-yl)phenyl)-6,7-dihydropyrazolo[1,5-a]pyrazin-4(5H)-one]
frequency of CD34+ HSC, fold increase ([1]; compound concentration 1,111 nM): 3.6 fold | CD34+ cell counts, fold expansion ([1]; compound concentration 10,000 nM): 4.0 fold

Structure (SMILES): Cc1cc(-c2ncc3nc(C(F)(F)F)ccc3n2)ccc1N1CCOc2cnn(C)c2C1=O [Example 001, 1-methyl-7-(2-methyl-4-(6-(trifluoromethyl)pyrido[3,2-d]pyrimidin-2-yl)phenyl)-6,7-dihydro-1H-pyrazolo[3,4-f][1,4]oxazepin-8(5H)-one]
CD34+ cell counts, fold expansion [1, 2]: 2.4 fold | frequency of CD34+ HSC, fold increase [1, 2]: 3.1 fold
